One assay has as its target Carbonic anhydrase 1 (Homo sapiens, UniProt P00915). The assay can be described thus: Inhibition of human erythrocyte CA1 esterase activity using 4-nitrophenyl acetate substrate.
Another assay addresses Carbonic anhydrase 2 (Homo sapiens, UniProt P00918).

Carbonic anhydrase 1, sequence (P00915 whole entry): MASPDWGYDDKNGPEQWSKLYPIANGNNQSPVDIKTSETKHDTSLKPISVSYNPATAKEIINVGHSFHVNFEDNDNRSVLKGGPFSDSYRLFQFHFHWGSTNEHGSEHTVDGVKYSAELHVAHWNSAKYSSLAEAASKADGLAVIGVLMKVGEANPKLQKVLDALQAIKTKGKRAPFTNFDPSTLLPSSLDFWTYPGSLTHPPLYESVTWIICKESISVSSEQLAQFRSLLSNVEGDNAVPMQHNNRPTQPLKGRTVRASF
Description for Carbonic anhydrase 2: Inhibition of human erythrocyte CA2 esterase activity using 4-nitrophenyl acetate substrate

The Ki is a dissociation constant, usually derived from enzyme kinetics or from competition with a known ligand. Read a low Ki as higher affinity. For `CC(C)c1cc(-c2cc(C(C)C)c(O)c(C(C)C)c2)cc(C(C)C)c1O`, at Carbonic anhydrase 1, the Ki came to 37.9 µM.

As for `COc1ccccc1O` [GUAIACOL], the Ki on Carbonic anhydrase 2 was 2.94 µM; on Carbonic anhydrase 1, 60.2 µM.

Turning to `CC(C)(C)c1cccc(C(C)(C)C)c1O`, at Carbonic anhydrase 1, the inhibition constant (Ki) amounted to 275 µM.

In turn, `CC(C)(C)c1cc(-c2cc(C(C)(C)C)c(O)c(C(C)(C)C)c2)cc(C(C)(C)C)c1O` yielded a Ki on Carbonic anhydrase 1 of 37.5 µM.

On to `Cc1cccc(C)c1O`, for which the Ki on Carbonic anhydrase 2 was 113 µM; at Carbonic anhydrase 1, 198 µM.

With `Cc1cc(C(C)(C)C)c(O)c(C(C)(C)C)c1` [BUTYLATED HYDROXYTOLUENE], the Ki is 0.63 µM at Carbonic anhydrase 2 and 245 µM at Carbonic anhydrase 1.

For `COc1cc(C(C)(C)C)c(O)c(C(C)(C)C)c1`, the affinity on Carbonic anhydrase 1, expressed as Ki, was 63.7 µM.

In the case of `Cc1cc(-c2cc(C)c(O)c(C)c2)cc(C)c1O`, the results for the Ki on Carbonic anhydrase 2 and on Carbonic anhydrase 1 were 4.05 µM and 92.8 µM, respectively.

With `CC(C)c1cccc(C(C)C)c1O` [PROPOFOL], the inhibitory constant (Ki) was 19.5 µM on Carbonic anhydrase 2 and 98.9 µM at Carbonic anhydrase 1.

For the compound `COc1c(O)cccc1C=O`, at Carbonic anhydrase 1, the Ki was found to be 55.6 µM.
